Where “and” joins values, the source holds several entries; their conditions need not be identical. Identical values can stand only once. ± gives the expanded uncertainty stated by the source.
Experiment: molar heat capacity at constant pressure
Settings: 101.33 kPa

CCC(O)CC [3-pentanol]
Settings | molar heat capacity at constant pressure
5.43 K, Crystal | 0.93 ± 0.11 J/K/mol
5.48 K, Crystal | 0.88 ± 0.11 J/K/mol
6.3 K, Crystal | 1.18 ± 0.13 J/K/mol
6.63 K, Crystal | 1.23 ± 0.13 J/K/mol
7.14 K, Crystal | 1.52 ± 0.14 J/K/mol
7.71 K, Crystal | 1.85 ± 0.16 J/K/mol
7.86 K, Crystal | 1.91 ± 0.16 J/K/mol
8.49 K, Crystal | 2.31 ± 0.18 J/K/mol
8.59 K, Crystal | 2.43 ± 0.18 J/K/mol
9.16 K, Crystal | 2.77 ± 0.2 J/K/mol
9.61 K, Crystal | 3.11 ± 0.21 J/K/mol
9.92 K, Crystal | 3.43 ± 0.23 J/K/mol
10 K, Crystal | 3.5 ± 0.23 J/K/mol
10.7 K, Crystal | 4.04 ± 0.25 J/K/mol
10.73 K, Crystal | 4.07 ± 0.26 J/K/mol
11.58 K, Crystal | 4.8 ± 0.28 J/K/mol
11.84 K, Crystal | 5.04 ± 0.29 J/K/mol
12.49 K, Crystal | 5.7 ± 0.32 J/K/mol
13.05 K, Crystal | 6.15 ± 0.33 J/K/mol
13.45 K, Crystal | 6.53 ± 0.35 J/K/mol
14.32 K, Crystal | 7.35 ± 0.37 J/K/mol
14.43 K, Crystal | 7.58 ± 0.38 J/K/mol
15 K, Crystal | 8.21 ± 0.4 J/K/mol
15.45 K, Crystal | 8.54 ± 0.41 J/K/mol
15.63 K, Crystal | 8.59 ± 0.41 J/K/mol
16.51 K, Crystal | 9.66 ± 0.45 J/K/mol
16.98 K, Crystal | 10.07 ± 0.46 J/K/mol
17.58 K, Crystal | 10.69 ± 0.48 J/K/mol
18.36 K, Crystal | 11.47 ± 0.5 J/K/mol
18.67 K, Crystal | 11.8 ± 0.51 J/K/mol
19.77 K, Crystal | 13.01 ± 0.54 J/K/mol and 12.97 ± 0.54 J/K/mol
20 K, Crystal | 13.21 ± 0.54 J/K/mol
20.89 K, Crystal | 14.13 ± 0.56 J/K/mol
21.2 K, Crystal | 14.45 ± 0.57 J/K/mol
22.02 K, Crystal | 15.43 ± 0.59 J/K/mol
22.64 K, Crystal | 16.12 ± 0.61 J/K/mol
23.16 K, Crystal | 16.63 ± 0.62 J/K/mol
24.11 K, Crystal | 17.73 ± 0.64 J/K/mol
24.31 K, Crystal | 18.04 ± 0.64 J/K/mol
25 K, Crystal | 18.82 ± 0.66 J/K/mol
25.43 K, Crystal | 19.3 ± 0.66 J/K/mol
25.59 K, Crystal | 19.51 ± 0.67 J/K/mol
26.27 K, Crystal | 19.88 ± 0.66 J/K/mol
26.44 K, Crystal | 21 ± 0.69 J/K/mol
26.46 K, Crystal | 20.69 ± 0.68 J/K/mol
27.41 K, Crystal | 20.88 ± 0.67 J/K/mol
27.44 K, Crystal | 20.97 ± 0.67 J/K/mol
28.31 K, Crystal | 21.71 ± 0.68 J/K/mol
29.2 K, Crystal | 22.65 ± 0.69 J/K/mol
30 K, Crystal | 23.56 ± 0.68 J/K/mol
30.84 K, Crystal | 24.51 ± 0.7 J/K/mol
32.44 K, Crystal | 26.27 ± 0.74 J/K/mol
34.05 K, Crystal | 27.98 ± 0.78 J/K/mol
35 K, Crystal | 28.96 ± 0.8 J/K/mol
35.7 K, Crystal | 29.65 ± 0.82 J/K/mol
37.37 K, Crystal | 30.89 ± 0.84 J/K/mol
39.08 K, Crystal | 32.33 ± 0.88 J/K/mol
40 K, Crystal | 33.19 ± 0.9 J/K/mol
40.8 K, Crystal | 33.94 ± 0.91 J/K/mol
42.52 K, Crystal | 35.56 ± 0.95 J/K/mol
44.25 K, Crystal | 37.13 ± 0.98 J/K/mol
45 K, Crystal | 37.81 ± 1 J/K/mol
46 K, Crystal | 38.7 ± 1 J/K/mol
47.76 K, Crystal | 40.3 ± 1.1 J/K/mol
49.53 K, Crystal | 41.89 ± 1.1 J/K/mol
50 K, Crystal | 42.29 ± 1.1 J/K/mol
51.31 K, Crystal | 43.33 ± 1.1 J/K/mol
53.11 K, Crystal | 44.7 ± 1.2 J/K/mol
54.91 K, Crystal | 46.08 ± 1.2 J/K/mol
55 K, Crystal | 46.14 ± 1.2 J/K/mol
56.73 K, Crystal | 47.47 ± 1.2 J/K/mol
58.56 K, Crystal | 48.81 ± 1.2 J/K/mol
60 K, Crystal | 49.88 ± 1.3 J/K/mol
60.4 K, Crystal | 50.18 ± 1.3 J/K/mol
62.25 K, Crystal | 51.52 ± 1.3 J/K/mol
64.1 K, Crystal | 52.82 ± 1.3 J/K/mol
65 K, Crystal | 53.44 ± 1.4 J/K/mol
65.97 K, Crystal | 54.11 ± 1.4 J/K/mol
67.84 K, Crystal | 55.41 ± 1.4 J/K/mol
69.72 K, Crystal | 56.67 ± 1.4 J/K/mol
70 K, Crystal | 56.86 ± 1.4 J/K/mol
71.6 K, Crystal | 57.95 ± 1.5 J/K/mol
73.49 K, Crystal | 59.18 ± 1.5 J/K/mol
75 K, Crystal | 60.13 ± 1.5 J/K/mol
75.38 K, Crystal | 60.37 ± 1.5 J/K/mol
77.28 K, Crystal | 61.55 ± 1.5 J/K/mol
79.19 K, Crystal | 62.78 ± 1.6 J/K/mol
80 K, Crystal | 63.27 ± 1.6 J/K/mol
81.1 K, Crystal | 63.93 ± 1.6 J/K/mol
83.01 K, Crystal | 65.07 ± 1.6 J/K/mol
84.93 K, Crystal | 66.32 ± 1.6 J/K/mol
85 K, Crystal | 66.36 ± 1.6 J/K/mol
86.86 K, Crystal | 67.47 ± 1.7 J/K/mol
88.78 K, Crystal | 68.55 ± 1.7 J/K/mol
90 K, Crystal | 69.21 ± 2.1 J/K/mol
90.7 K, Crystal | 69.61 ± 2.1 J/K/mol
92.62 K, Crystal | 70.75 ± 2.1 J/K/mol
94.54 K, Crystal | 71.9 ± 2.1 J/K/mol
95 K, Crystal | 72.17 ± 2.1 J/K/mol
96.47 K, Crystal | 72.98 ± 2.1 J/K/mol
98.4 K, Crystal | 74.27 ± 2.1 J/K/mol
98.9 K, Glass | 77.69 ± 2.2 J/K/mol
99.63 K, Glass | 77.09 ± 2.2 J/K/mol
100 K, Crystal | 76.23 ± 2.2 J/K/mol
100.34 K, Crystal | 75.65 ± 2.2 J/K/mol
100.42 K, Crystal | 75.69 ± 2.2 J/K/mol
100.73 K, Crystal | 75.56 ± 2.2 J/K/mol
101.47 K, Glass | 78.26 ± 2.2 J/K/mol
101.88 K, Crystal | 76.15 ± 2.2 J/K/mol
103.84 K, Crystal | 77.02 ± 2.2 J/K/mol
104.37 K, Glass | 79.98 ± 2.2 J/K/mol
105 K, Crystal | 79.46 ± 2.2 J/K/mol
105.79 K, Crystal | 78.1 ± 2.2 J/K/mol
107.23 K, Glass | 82.34 ± 2.3 J/K/mol
107.74 K, Crystal | 79.42 ± 2.2 J/K/mol
109.68 K, Crystal | 80.42 ± 2.3 J/K/mol
110 K, Crystal | 83.89 ± 2.3 J/K/mol
110.1 K, Glass | 84.56 ± 2.3 J/K/mol
111.63 K, Crystal | 81.37 ± 2.3 J/K/mol
112.97 K, Glass | 86.83 ± 2.4 J/K/mol
113.58 K, Crystal | 82.36 ± 2.3 J/K/mol
115.54 K, Crystal | 83.34 ± 2.4 J/K/mol
115.84 K, Glass | 89.3 ± 2.4 J/K/mol
117.49 K, Crystal | 84.31 ± 2.3 J/K/mol
118.71 K, Glass | 92.11 ± 2.5 J/K/mol
119.44 K, Crystal | 85.07 ± 2.3 J/K/mol
120 K, Crystal | 82.36 ± 2.3 J/K/mol
121.39 K, Crystal | 86.04 ± 2.5 J/K/mol
121.59 K, Glass | 95.01 ± 2.5 J/K/mol
123.34 K, Crystal | 87.47 ± 2.4 J/K/mol
124.46 K, Glass | 99.21 ± 2.6 J/K/mol
125.29 K, Crystal | 88.5 ± 2.4 J/K/mol
127.24 K, Crystal | 89.59 ± 2.4 J/K/mol
127.34 K, Glass | 104.26 ± 2.7 J/K/mol
129.2 K, Crystal | 90.65 ± 2.5 J/K/mol
131.15 K, Crystal | 91.7 ± 2.5 J/K/mol
133.11 K, Crystal | 92.81 ± 2.5 J/K/mol
135.06 K, Crystal | 93.83 ± 2.5 J/K/mol
135.56 K, Liquid | 147.41 ± 3.5 J/K/mol
137.01 K, Crystal | 94.96 ± 2.5 J/K/mol
138.31 K, Liquid | 149.27 ± 3.6 J/K/mol
138.96 K, Crystal | 95.99 ± 2.5 J/K/mol
140.92 K, Crystal | 97.1 ± 2.6 J/K/mol
141.2 K, Liquid | 149.61 ± 3.6 J/K/mol
142.87 K, Crystal | 98.24 ± 2.6 J/K/mol
144.14 K, Liquid | 149.91 ± 3.6 J/K/mol
144.82 K, Crystal | 99.32 ± 2.6 J/K/mol
146.77 K, Crystal | 100.55 ± 2.6 J/K/mol
147.09 K, Liquid | 150.15 ± 3.6 J/K/mol
148.72 K, Crystal | 101.76 ± 2.7 J/K/mol
150.04 K, Liquid | 150.36 ± 3.6 J/K/mol
150.67 K, Crystal | 103.08 ± 2.7 J/K/mol
152.61 K, Crystal | 104.4 ± 2.7 J/K/mol

Source: the NIST ThermoML archive (doi:10.1021/je060411g)
